According to patent US20250297233A1, “GENETICALLY ENCODED SYSTEMS FOR GENERATING OXYGEN IN LIVING EUKARYOTIC CELLS” (The General Hospital Corporation, priority 2022, published 2025):
pIC50: −log10 of the molar value. Where two headings read alike, the source gives them in different places.

Columns and labels:
[1] = target: sodium iodide symporter (NIS) (Rattus norvegicus, UniProt Q63008); conditions: read-out: Km of NIS transport; Xenopus oocytes (Eskandari 1997); cited from earlier work
NdCld [2] = conditions: purified bacterial expressed NdCld (Kostan 2010; Hofbauer 2014); cited from earlier work
NdCld, sequence (as listed by the source): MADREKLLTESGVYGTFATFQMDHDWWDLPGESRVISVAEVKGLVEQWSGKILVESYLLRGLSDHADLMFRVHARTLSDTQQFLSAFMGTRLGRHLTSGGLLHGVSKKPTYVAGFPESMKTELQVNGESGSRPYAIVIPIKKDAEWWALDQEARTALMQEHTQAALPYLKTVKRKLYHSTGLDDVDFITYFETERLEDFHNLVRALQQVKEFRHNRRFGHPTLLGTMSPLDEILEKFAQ

yeast = conditions: read-out: dose required to achieve 50% growth inhibition; yeast (Kwolek-Mirek 2011); cited from earlier work
NdCld [3] = conditions: human digitonin-permeabilized HeLa cell extract expressing NdCld, initial rates of oxygen evolution
Description: HeLa cells were pelleted at 800×g for 3 min, washed with PBS, pelleted again, and then resuspended in assay buffer (125 mM KCl, 2 mM K2HPO4, 1 mM MgCl2, 2 0 mM HEPES pH 7.2, 5 mM glutamate, 5 mM malate, and 0.01% digitonin) at a concentration of 5×10^6 cells/ml. Oxygen production was measured using a FireSting optical oxygen meter connected to a sensor vial. One ml of cell solution (5×10^6 cells) was used for each measurement. Measurements were performed under ambient air conditions with stirring of the cell solution. […] The initial rates were determined from the resulting oxygen traces using up to 20 seconds of the linear portion of the trace via the ICEKAT web server (Olp, 2020). The means of 3 replicate rates were plotted against the chlorite concentrations to estimate the KM.
We next characterized the activity of this protein in human cell extracts. […] Doses spanning 10 uM to 1 mM were used, as previous studies have shown that higher chlorite concentrations lead to inactivation of the enzyme (Hofbauer 2014). We monitored oxygen evolution using an optical probe in a well-stirred, air saturated cuvette.

NdCld [4] = conditions: NdCld in E. coli extracts (Maixner 2008); cited from earlier work
HeLa cells [5] = assay: Seahorse oxygen and oxygen consumption rate measurement in intact cells; type: cell-based, human; conditions: 1% ambient oxygen
HeLa cells [6] = conditions: read-out: concentration giving 50% decrease in viability; HeLa cells (GFP), treated for 3 days, FIG. 3A
Description: Cell counts and viability were assessed after 3 days of growth using a Vi-Cell BLU Cell Viability Analyzer. Shown is the mean+/−s.d. of triplicate measurements.
HeLa cells were trypsinized, counted, and prepared at 10^5 cells/ml in normal growth media. […] Cells were seeded in 24-well plates, with triplicate wells for each condition. 500 ul of each 2× chlorite/media preparation was first added to the plate. 500 ul of cell suspension (5×10^4 cells) was then added to each well. The plate was gently mixed, and cells were grown for 3 days in a 37° C./5% CO2 incubator. After 3 days, cells were washed briefly with 500 ul of PBS, trypsinized with 250 ul TrypLE Express, and resuspended with 750 ul of normal growth media to 1 ml total volume. In wells containing a majority of visibly dead, floating cells, cells were resuspended by vigorously pipetting up and down rather than by trypsinization. 200 ul of each cell suspension was then quantified using a Vi-Cell BLU Cell Viability Analyzer (Beckman Coulter).

sodium iodide symporter (NIS), sequence (Q63008 whole entry): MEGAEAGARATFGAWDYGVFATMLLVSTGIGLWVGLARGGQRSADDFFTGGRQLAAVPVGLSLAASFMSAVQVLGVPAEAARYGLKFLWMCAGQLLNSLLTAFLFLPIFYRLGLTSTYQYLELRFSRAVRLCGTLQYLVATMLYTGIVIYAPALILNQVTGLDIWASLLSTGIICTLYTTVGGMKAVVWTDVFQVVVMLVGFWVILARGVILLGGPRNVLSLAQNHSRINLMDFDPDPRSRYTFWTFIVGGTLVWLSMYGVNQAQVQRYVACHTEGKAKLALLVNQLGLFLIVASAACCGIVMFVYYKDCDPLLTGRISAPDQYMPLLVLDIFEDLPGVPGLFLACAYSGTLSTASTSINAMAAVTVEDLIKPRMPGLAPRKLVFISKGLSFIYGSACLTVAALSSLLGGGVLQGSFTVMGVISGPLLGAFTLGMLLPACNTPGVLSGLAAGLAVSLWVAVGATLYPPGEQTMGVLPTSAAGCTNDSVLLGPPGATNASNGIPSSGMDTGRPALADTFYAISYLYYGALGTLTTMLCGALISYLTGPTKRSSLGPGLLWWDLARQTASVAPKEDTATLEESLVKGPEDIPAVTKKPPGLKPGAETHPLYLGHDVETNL

Molecule | Km [1] [µM] | Km (NdCld [2]) [µM] | pIC50 (yeast) | Vmax (NdCld [3]) | Km (NdCld [3]; read-out: Km for chlorite) [µM] | Km (NdCld [4]) [µM] | oxygen generation (decline in apparent OCR) (HeLa cells [5]; HeLa cells co-expressing NdCld and NIS, piericidin+antimycin, dose response beginning with 1 mM chlorite) | oxygen evolution in intact cells (HeLa cells [5]; HeLa cells expressing FLAG-NdCld+NIS (not mCherry), 500 uM or 1 mM chlorite) | pIC50 (HeLa cells [6])
[O-][Cl+2]([O-])O [chlorate] | 277 |  |  |  |  |  |  |  | 
sodium chlorite |  | 58 to 69 | 2.40 | 0.37 umoles/second/100,000 cells | 560 | 15800 | robust oxygen production | observed oxygen evolution | ~2.70
